These results are taken from patent US12133855B2, “Lipid-like nanocomplexes and uses thereof” (Trustees of Tufts College, priority 2018, dated 2024).

Where two headings read alike, the source gives them in different places.

Series [1] relates to HeLa-DsRed cells. Format: cell-based. The conditions noted are these: for cell viability: 8 h exposure, MTT after 24 h; for cell morphology changes: bright field images. Here is the method:
(§1) All experiments were performed in quadruplicate.
In this context, the internalization mechanism of the (−30)GFP-Cre/LNPs complexes was studied at first, by introducing different endocytosis inhibitors, i.e., sucrose (clathrin-mediated endocytosis inhibitor), methyl-β-cyclodextrin (M-β-CD, cholesterol-depleting agent), dynasore (dynamin II inhibitor) and nystatin (caveolin-mediated endocytosis inhibitor), following our previously reported procedures. […] Comparing to other combinatorial library studies, it is clear that even loaded with same cargoes and tested against same cell line, different lipidoids with different chemical structures could be internalized through very distinct pathways. Next, the genome-editing efficiencies of (−30)GFP-Cre/LNPs were determined by flow cytometry after 24 h of incubation (with 8 h of (−30)GFP-Cre/LNPs complex exposure). Three different concentrations of protein/lipidoid complexes (25 nM/1.7 μg mL^−1, 50 nM/3.4 μg mL^−1, and 100 nM/6.6 μg mL^−1) were tested for each lipidoid nanoparticle. […] For example, the DsRed^+ cells were recorded as 10.5%/24.9%/88.9%, 13.5%/55.4%/88.8%, and 27.7%/47.8%/94.7% for (−30)GFP-Cre loaded 75-OCholB, 76-OCholB and 77-OCholB, respectively, at the protein concentration of 25, 50 and 100 nM. […] Then, the cytotoxicity profiles of (−30)GFP-Cre/LNPs, (−30)GFP-Cre/Lpf2k and naked (−30)GFP-Cre at different concentrations against HeLa-DsRed cells (8 h of exposure; (−30)GFP-Cre/LNPs=25 nM/1.7 μg mL^−1, 50 nM/3.4 μg mL^−1, and 100 nM/6.6 μg mL^−1) are measured using MTT assay after 24 h of incubation. […] For (−30)GFP-Cre/75-OCholB treated cells, the viabilities were determined to be 95.5%, 91.8% and 83.1%, at the protein concentration of 25, 50 and 100 nM, respectively; the numbers for (−30)GFP-Cre/76-OCholB and (−30)GFP-Cre/77-OCholB are 97.8%/98.2%/97.2 and 100.9%/96.6%/98.6%. […] Meanwhile, the morphology changes of HeLa-DsRed cell treated with different nanoparticle formulations were studied and the results are shown in FIG. 15E. […] Samples found in upper left quadrant are non-toxic and inefficient for delivery; samples in lower left quadrant are toxic and inefficient; samples in lower right quadrant are efficient but toxic; samples in upper right quadrant are non-toxic and efficient, which would be top candidates for further study. It is clear that Lpf2k (shown in dotted purple circle) at high concentration is relatively efficient for genome editing, while also toxic to the target cells. On the other hand, most of the (−30)GFP-Cre loaded OCholB LNPs are almost non-toxic when compared to (−30)GFP-Cre/Lpf2k, similar to naked (−30)GFP-Cre protein. 87-OCholB, 90-OCholB and 304-OCholB (shown in dotted dark blue circle) are less efficient for genome-editing; while high genome editing efficacy and excellent tolerability were achieved by using 75-OCholB, 76-OCholB and 77-OCholB (shown in dotted green circle).

Series [2] has as its system HeLa-DsRed cells. The series is described as follows: Internalization mechanism study with endocytosis inhibitors. Format: cell-based. The conditions noted are these: [lipidoid]=6.6 μg mL^−1, [(−30)GFP-Cre]=100 nM; 6 h. The text has this:
In this context, the internalization mechanism of the (−30)GFP-Cre/LNPs complexes was studied at first, by introducing different endocytosis inhibitors, i.e., sucrose (clathrin-mediated endocytosis inhibitor), methyl-β-cyclodextrin (M-β-CD, cholesterol-depleting agent), dynasore (dynamin II inhibitor) and nystatin (caveolin-mediated endocytosis inhibitor), following our previously reported procedures. […] Comparing to other combinatorial library studies, it is clear that even loaded with same cargoes and tested against same cell line, different lipidoids with different chemical structures could be internalized through very distinct pathways. Next, the genome-editing efficiencies of (−30)GFP-Cre/LNPs were determined by flow cytometry after 24 h of incubation (with 8 h of (−30)GFP-Cre/LNPs complex exposure). Three different concentrations of protein/lipidoid complexes (25 nM/1.7 μg mL^−1, 50 nM/3.4 μg mL^−1, and 100 nM/6.6 μg mL^−1) were tested for each lipidoid nanoparticle. […] For example, the DsRed^+ cells were recorded as 10.5%/24.9%/88.9%, 13.5%/55.4%/88.8%, and 27.7%/47.8%/94.7% for (−30)GFP-Cre loaded 75-OCholB, 76-OCholB and 77-OCholB, respectively, at the protein concentration of 25, 50 and 100 nM. […] Then, the cytotoxicity profiles of (−30)GFP-Cre/LNPs, (−30)GFP-Cre/Lpf2k and naked (−30)GFP-Cre at different concentrations against HeLa-DsRed cells (8 h of exposure; (−30)GFP-Cre/LNPs=25 nM/1.7 μg mL^−1, 50 nM/3.4 μg mL^−1, and 100 nM/6.6 μg mL^−1) are measured using MTT assay after 24 h of incubation. […] For (−30)GFP-Cre/75-OCholB treated cells, the viabilities were determined to be 95.5%, 91.8% and 83.1%, at the protein concentration of 25, 50 and 100 nM, respectively; the numbers for (−30)GFP-Cre/76-OCholB and (−30)GFP-Cre/77-OCholB are 97.8%/98.2%/97.2 and 100.9%/96.6%/98.6%. […] Meanwhile, the morphology changes of HeLa-DsRed cell treated with different nanoparticle formulations were studied and the results are shown in FIG. 15E. […]

For series [3], the system named is Jurkat (human T lymphocyte cells). The series is described as follows: GFP mRNA delivery (GFP+ cells). Type of series: cell-based. The conditions noted are these: LNP/mRNA=10/1, [mRNA]=0.86 μg mL^−1, 24 h. Here is the method: To examine the delivery spectrum of the newly developed LNPs, the GFP mRNA loaded OCholB LNPs were then challenged against other four types of cell lines. B16F10 (mouse melanoma cells), HEK 293 (human embryonic kidney cells), NIH 3T3 (mouse embryonic fibroblast cells) and Jurkat (human T lymphocyte cells) cells were tested (LNP/mRNA=10/1; [mRNA]=0.86 μg mL^−1; 24 h exposure) and the results are shown in FIG. 14D. As the positive control, Lpf2k turned out to be very efficient to deliver GFP mRNA into B16F10 (63.2% of GFP^+ cells), HEK 293 (80.1%) and NIH 3T3 (70.1%) cells, while slightly less efficient to Jurkat cell (28.7%), which is usually considered to be one of the most difficult-to-transfect cell lines. […] For example, 63.0%, 60.9%, 54.1% and 50.1% of GFP^+ cells were determined from mRNA/75-OCholB treated B16F10, HEK 293, NIH 3T3 and Jurkat cells; and the numbers for mRNA/76-OCholB treated cells were 70.7%, 75.8%, 24.1% and 7.7%, respectively. It was obvious that not only the types of lipidoids, but also the target cell lines could have huge impacts on the delivery efficacy. Overall, the positive control, Lpf2k, is a relatively high-activity broad-spectrum transfection reagent; most of the OCholB LNPs (6 out of 9) are also effective broad-spectrum transfection reagents under the tested conditions. […] It was expected that through further formulation optimization, such as adding excipients (helper lipids like small molecular phospholipids (e.g. DOPE and DSPC) and macromolecules lipids (e.g. PEG-DSPE and PEG-Ceramide)) into the LNPs and/or using more controllable self-assembly procedures, improved transfection efficiency of the fully substituted OCholB LNPs could be achieved.

A short description of series [4]: Storage stability of LNPs (time-dependent DLS, DiO/DiI FRET). The conditions noted are these: DiO and DiI encapsulated LNPs, 7 days of storage. Type of series: physicochemical. Here is the method:
The morphologies of LNPs were further studied by the transmission electron microscopy (TEM). […] Subsequently, the stability of LNPs thus prepared was examined by DLS and fluorescence measurements.
The cell (HeLa and HeLa-DsRed cell lines) internalization studies were conducted using small molecular hydrophobic (nile red) and hydrophilic (calcein) fluorescent dyes and macromolecular fluorescent recombinant protein ((−30)GFP-Cre) loaded OCholB LNPs. The stabilities of cargo-loaded LNPs were examined at first using time-dependent DLS and fluorescence measurements.

Another series has as its system HeLa cells. Description: MTT cytotoxicity of mRNA-loaded nanoparticles. Type of series: cell-based. Conditions: for cell morphology (bright field images): 24 h of exposure; for cell viability: GFP mRNA loaded, lipidoid/mRNA=10/1, [mRNA]=0.86 μg mL^−1, 24 h. Here is the method:
as §1
Next, the MTT assay was conducted to examine the cytotoxicity of mRNA-loaded nanoparticles against HeLa cells.

Where [5] appears, read: (−30)GFP-Cre 25 nM/1.7 μg mL^−1.
[6] abbreviates: (−30)GFP-Cre 50 nM/3.4 μg mL^−1.
Where [7] appears, read: (−30)GFP-Cre 100 nM/6.6 μg mL^−1.

Turning to `CCN(CC)CCN(CCC(=O)OCCSSCCNC(=O)OC1CCC2(C)C(=CCC3C2CCC2(C)C(C(C)CCCC(C)C)CCC32)C1)CCC(=O)OCCSSCCNC(=O)OC1CCC2(C)C(=CCC3C2CCC2(C)C(C(C)CCCC(C)C)CCC32)C1` (centres unmarked) [Lipidoid 75-OCholB], the cell viability came to 95.5% in the series on HeLa-DsRed cells [1] (setting [5]), 91.8% with HeLa-DsRed cells [1] (setting [6]), 83.1% in the series on HeLa-DsRed cells [1] (setting [7]) and 84.7% in the series with HeLa cells. Besides, the cell morphology changes entry in the series with HeLa-DsRed cells [1] is “less affected”. Besides, in the series with HeLa-DsRed cells [2], the “internalization efficiency with endocytosis inhibitors” value was “significantly suppressed by sucrose and dynasore”. In addition, the “GFP^+ cells” value in series [3] was “particular advantages over Lpf2k”; in series [3] (listed as mRNA/75-OCholB), 50.1%. Moreover, in series [4], the “FRET ratio (I575/I575+I505) variations” value is given as “negligible variations”. In addition, the “cell morphology (bright field images)” value with HeLa cells is given as “no obvious variations”.

Regarding `CC(C)CCCC(C)C1CCC2C3CC=C4CC(OC(=O)NCCSSCCOC(=O)CCN(CCC(=O)OCCSSCCNC(=O)OC5CCC6(C)C(=CCC7C6CCC6(C)C(C(C)CCCC(C)C)CCC76)C5)CCN5CCCC5)CCC4(C)C3CCC12C` (centres unmarked) [Lipidoid 76-OCholB], the cell viability is 97.8% in the series with HeLa-DsRed cells [1] (setting [5]), 98.2% in the series with HeLa-DsRed cells [1] (setting [6]), 97.2% in the series with HeLa-DsRed cells [1] (setting [7]) and 94.5% in the series with HeLa cells. In addition, in the series with HeLa-DsRed cells [1], the cell morphology changes entry is recorded as “less affected”. In the series with HeLa-DsRed cells [2], the “internalization efficiency with endocytosis inhibitors” value is “significantly suppressed by sucrose and dynasore”. Also, in series [3], the “GFP^+ cells” value was found to be 7.7%. In series [4], the “FRET ratio (I575/I575+I505) variations” value is given as “negligible variations”. In the series with HeLa cells, the “cell morphology (bright field images)” value is listed as “no obvious variations”.

With `CC(C)CCCC(C)C1CCC2C3CC=C4CC(OC(=O)NCCSSCCOC(=O)CCN(CCC(=O)OCCSSCCNC(=O)OC5CCC6(C)C(=CCC7C6CCC6(C)C(C(C)CCCC(C)C)CCC76)C5)CCN(C)C)CCC4(C)C3CCC12C` (centres unmarked) [Lipidoid 78-OCholB], in series [3], the “GFP^+ cells” value is reported as “particular advantages over Lpf2k”.

On to `CC(C)CCCC(C)C1CCC2C3CC=C4CC(OC(=O)NCCSSCCOC(=O)CCN(CCC(=O)OCCSSCCNC(=O)OC5CCC6(C)C(=CCC7C6CCC6(C)C(C(C)CCCC(C)C)CCC76)C5)CCC5CCCN5C)CCC4(C)C3CCC12C` (centres unmarked) [Lipidoid 77-OCholB], for which the cell viability came to 100.9% in the series with HeLa-DsRed cells [1] (setting [5]), 96.6% with HeLa-DsRed cells [1] (setting [6]), 98.6% in the series with HeLa-DsRed cells [1] (setting [7]) and 100.1% with HeLa cells. Also, the cell morphology changes result in the series on HeLa-DsRed cells [1] is listed as “less affected”. Besides, in the series on HeLa-DsRed cells [2], the “internalization efficiency with endocytosis inhibitors” value was “significantly suppressed by sucrose and dynasore”. For the same molecule, the “GFP^+ cells” value in series [3] was “particular advantages over Lpf2k”. In addition, the “FRET ratio (I575/I575+I505) variations” value in series [4] is “negligible variations”. Besides, the “cell morphology (bright field images)” value in the series on HeLa cells is “no obvious variations”.

As usually defined, the cell viability is a read-out of living cells in per cent, often relative to untreated cells.
